How the values were obtained:
[1] = Dual label excretion studies of 188Re-MAG3 and 99mTc-MAG3 in rats (urine, feces); format: in vivo; settings: simultaneously injected in rats
Excerpt: Comparison of the Excretion of ^188 Re-MAG3 with ^99 mTc-MAG3 in rats
Dual Label Excretion Studies of ^188 Re-MAG3 and ^99m Tc-MAG3 in Rats

[2] = Biodistribution of 99mTc-MAG3 and 188Re-MAG3 in a dual label study, tail vein injection; format: in vivo, rats; settings: ± standard deviation
Excerpt: Biodistribution Data for ^99m Tc-MAG3 and ^188 Re-MAG3 in a dual label study

O=C(O)C[N]1C(=O)C[N]2C(=O)C[N]3C(=O)C[S][99Tc-]132=[O] [^99m Tc-MAG3, reference compound]
distribution and elimination, 99mTc-MAG3 versus 188Re-MAG3 [1]: identical
Biodistribution Data for ^99m Tc-MAG3, blood ([2]; 2 h): 0.18 ± 0.02 % inj. dose/g tissue
Biodistribution Data for ^99m Tc-MAG3, blood ([2]; 6 h): 0.13 ± 0.00 % inj. dose/g tissue
Biodistribution Data for ^99m Tc-MAG3, blood ([2]; 24 h): 0.05 ± 0.00 % inj. dose/g tissue
Biodistribution Data for ^99m Tc-MAG3, bone ([2]; 2 h): 0.05 ± 0.02 % inj. dose/g tissue
Biodistribution Data for ^99m Tc-MAG3, bone ([2]; 6 h): 0.03 ± 0.03 % inj. dose/g tissue
Biodistribution Data for ^99m Tc-MAG3, bone ([2]; 24 h): 0.02 ± 0.01 % inj. dose/g tissue
Biodistribution Data for ^99m Tc-MAG3, contents of l.i. ([2]; 2 h): 0.72 ± 0.18 % inj. dose/g tissue
Biodistribution Data for ^99m Tc-MAG3, contents of l.i. ([2]; 6 h): 1.16 ± 0.23 % inj. dose/g tissue
Biodistribution Data for ^99m Tc-MAG3, contents of l.i. ([2]; 24 h): 0.05 ± 0.01 % inj. dose/g tissue
Biodistribution Data for ^99m Tc-MAG3, contents of s.i. ([2]; 2 h): 1.84 ± 2.27 % inj. dose/g tissue
Biodistribution Data for ^99m Tc-MAG3, contents of s.i. ([2]; 6 h): 0.08 ± 0.03 % inj. dose/g tissue
Biodistribution Data for ^99m Tc-MAG3, contents of s.i. ([2]; 24 h): 0.02 ± 0.01 % inj. dose/g tissue
Biodistribution Data for ^99m Tc-MAG3, heart ([2]; 2 h): 0.09 ± 0.02 % inj. dose/g tissue
Biodistribution Data for ^99m Tc-MAG3, heart ([2]; 6 h): 0.08 ± 0.01 % inj. dose/g tissue
Biodistribution Data for ^99m Tc-MAG3, heart ([2]; 24 h): 0.04 ± 0.00 % inj. dose/g tissue
Biodistribution Data for ^99m Tc-MAG3, kidneys ([2]; 2 h): 0.61 ± 0.11 % inj. dose/g tissue
Biodistribution Data for ^99m Tc-MAG3, kidneys ([2]; 6 h): 0.43 ± 0.09 % inj. dose/g tissue
Biodistribution Data for ^99m Tc-MAG3, kidneys ([2]; 24 h): 0.40 ± 0.11 % inj. dose/g tissue
Biodistribution Data for ^99m Tc-MAG3, large intestine ([2]; 2 h): 0.14 ± 0.02 % inj. dose/g tissue
Biodistribution Data for ^99m Tc-MAG3, large intestine ([2]; 6 h): 0.18 ± 0.00 % inj. dose/g tissue
Biodistribution Data for ^99m Tc-MAG3, large intestine ([2]; 24 h): 0.06 ± 0.00 % inj. dose/g tissue
Biodistribution Data for ^99m Tc-MAG3, liver ([2]; 2 h): 0.15 ± 0.02 % inj. dose/g tissue
Biodistribution Data for ^99m Tc-MAG3, liver ([2]; 6 h): 0.15 ± 0.00 % inj. dose/g tissue
Biodistribution Data for ^99m Tc-MAG3, liver ([2]; 24 h): 0.11 ± 0.01 % inj. dose/g tissue
Biodistribution Data for ^99m Tc-MAG3, lung ([2]; 2 h): 0.15 ± 0.04 % inj. dose/g tissue
Biodistribution Data for ^99m Tc-MAG3, lung ([2]; 6 h): 0.07 ± 0.02 % inj. dose/g tissue
Biodistribution Data for ^99m Tc-MAG3, lung ([2]; 24 h): 0.04 ± 0.03 % inj. dose/g tissue
Biodistribution Data for ^99m Tc-MAG3, small intestine ([2]; 2 h): 0.12 ± 0.04 % inj. dose/g tissue
Biodistribution Data for ^99m Tc-MAG3, small intestine ([2]; 6 h): 0.07 ± 0.01 % inj. dose/g tissue
Biodistribution Data for ^99m Tc-MAG3, small intestine ([2]; 24 h): 0.03 ± 0.00 % inj. dose/g tissue
Biodistribution Data for ^99m Tc-MAG3, spleen ([2]; 2 h): 0.06 ± 0.02 % inj. dose/g tissue
Biodistribution Data for ^99m Tc-MAG3, spleen ([2]; 6 h): 0.07 ± 0.01 % inj. dose/g tissue
Biodistribution Data for ^99m Tc-MAG3, spleen ([2]; 24 h): 0.06 ± 0.00 % inj. dose/g tissue
Biodistribution Data for ^99m Tc-MAG3, thyroid ([2]; 2 h): 2.41 ± 0.95 % inj. dose/g tissue
Biodistribution Data for ^99m Tc-MAG3, thyroid ([2]; 6 h): 2.43 ± 0.24 % inj. dose/g tissue
Biodistribution Data for ^99m Tc-MAG3, thyroid ([2]; 24 h): 0.76 ± 0.59 % inj. dose/g tissue
